Test results published in patent US20240025883A1, “PYRIMIDIN-2-YL SULFONAMIDE DERIVATIVES” (Hoffmann-La Roche Inc., priority 2021, published 2024).
pIC50: −log10 of the molar value.

biological target: human GPR17 short isoform (Homo sapiens (Human), UniProt Q13304); experiment: GPR17 cAMP assay (hGPR17 cAMP, antagonist mode against EC80 of MDL29,951); assay type: cell-based; settings: CHO-K1 cells stably expressing human GPR17 short isoform; EC80 of agonist MDL29,951; forskolin 15 μM
In short: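 CHO-K1 cells stably expressing untagged human GPR17 short isoform, 10,000/well in HBSS/10 mM HEPES/0.1% BSA pH 7.4. Compounds added with EC80 MDL29,951 and 0.5 mM IBMX, then 15 μM forskolin 5 min later, 30 min at room temperature; cAMP by TR-FRET, normalized to reference antagonist, sigmoidal fit.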

Chain of human GPR17 short isoform (Q13304 29-367): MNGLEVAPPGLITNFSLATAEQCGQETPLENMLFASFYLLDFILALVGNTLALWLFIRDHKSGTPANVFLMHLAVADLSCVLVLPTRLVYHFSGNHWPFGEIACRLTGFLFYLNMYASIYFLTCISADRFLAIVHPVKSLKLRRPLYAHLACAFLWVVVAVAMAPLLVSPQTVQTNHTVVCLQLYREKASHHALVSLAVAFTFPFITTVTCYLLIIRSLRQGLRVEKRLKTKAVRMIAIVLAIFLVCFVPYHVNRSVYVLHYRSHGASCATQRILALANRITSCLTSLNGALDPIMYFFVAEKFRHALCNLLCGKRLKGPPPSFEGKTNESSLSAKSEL

Row | Compound | pIC50
1 | COc1nc(NS(=O)(=O)c2c[nH]c3c(OC4CC4)c(Cl)ccc23)ncc1CC(F)F [Example 127, 6-chloro-7-(cyclopropoxy)-N-[5-(2,2-difluoroethyl)-4-methoxy-pyrimidin-2-yl]-1H-indole-3-sulfonamide] | 7.52
2 | COc1nc(NS(=O)(=O)c2c[nH]c3c(Br)c(F)ccc23)ncc1CC(F)F [Example 128, 7-bromo-N-[5-(2,2-difluoroethyl)-4-methoxy-pyrimidin-2-yl]-6-fluoro-1H-indole-3-sulfonamide] | 6.35
3 | COc1nc(NS(=O)(=O)c2c[nH]c3c(Br)cccc23)ncc1CC(F)F [Example 129, 7-bromo-N-[5-(2,2-difluoroethyl)-4-methoxy-pyrimidin-2-yl]-1H-indole-3-sulfonamide] | 6.02
4 | COc1nc(NS(=O)(=O)c2c[nH]c3c(Cl)c(F)ccc23)ncc1CC(F)F [Example 130, 7-chloro-N-[5-(2,2-difluoroethyl)-4-methoxy-pyrimidin-2-yl]-6-fluoro-1H-indole-3-sulfonamide] | 6.41
5 | COc1nc(NS(=O)(=O)c2c[nH]c3nc(C)ccc23)nc(OC)c1OCCF [Example 131, N-[5-(2-fluoroethoxy)-4,6-dimethoxy-pyrimidin-2-yl]-6-methyl-1H-pyrrolo[2,3-b]pyridine-3-sulfonamide] | 6.94
6 | COc1nc(NS(=O)(=O)c2c[nH]c3nc(C)ccc23)nc(OC)c1CC(F)F [Example 132, N-[5-(2,2-difluoroethyl)-4,6-dimethoxy-pyrimidin-2-yl]-6-methyl-1H-pyrrolo[2,3-b]pyridine-3-sulfonamide] | 7.41
7 | COc1nc(NS(=O)(=O)c2c[nH]c3c(N4CCOCC4)c(Cl)ccc23)nc(OC)c1CC(F)F [Example 133, 6-chloro-N-[5-(2,2-difluoroethyl)-4,6-dimethoxy-pyrimidin-2-yl]-7-morpholino-1H-indole-3-sulfonamide] | 7.12
8 | COc1nc(NS(=O)(=O)c2c[nH]c3c(Br)cccc23)nc(OC)c1CC(F)F [Example 134, 7-bromo-N-[5-(2,2-difluoroethyl)-4,6-dimethoxy-pyrimidin-2-yl]-1H-indole-3-sulfonamide] | 6.91
9 | COc1nc(NS(=O)(=O)c2c[nH]c3cc(Cl)ccc23)ncc1OCC(F)F [Example 135, 6-chloro-N-[5-(2,2-difluoroethoxy)-4-methoxy-pyrimidin-2-yl]-1H-indole-3-sulfonamide] | 6.73
10 | COc1nc(NS(=O)(=O)c2c[nH]c3cc(Cl)ccc23)ncc1C(C)(F)F [Example 136, 6-chloro-N-[5-(1,1-difluoroethyl)-4-methoxy-pyrimidin-2-yl]-1H-indole-3-sulfonamide] | 6.13
11 | CCc1nc(NS(=O)(=O)c2c[nH]c3cc(Cl)ccc23)nc(OC)c1C [Example 137, 6-chloro-N-(4-ethyl-6-methoxy-5-methyl-pyrimidin-2-yl)-1H-indole-3-sulfonamide] | 6.35
12 | COc1nc(NS(=O)(=O)c2c[nH]c3cc(Cl)ccc23)nc(C2CCOCC2)c1Br [Example 138, N-(5-bromo-4-methoxy-6-tetrahydropyran-4-yl-pyrimidin-2-yl)-6-chloro-1H-indole-3-sulfonamide] | 4.68
13 | COc1nc(NS(=O)(=O)c2csc3nc(Cl)ccc23)ncc1CC(F)F [Example 139, 6-chloro-N-[5-(2,2-difluoroethyl)-4-methoxy-pyrimidin-2-yl]thieno[2,3-b]pyridine-3-sulfonamide] | 6.97
14 | COc1nc(NS(=O)(=O)c2c[nH]c3cc(F)ccc23)ncc1CC(F)F [Example 140, N-[5-(2,2-difluoroethyl)-4-methoxy-pyrimidin-2-yl]-6-fluoro-1H-indole-3-sulfonamide] | 7.30
15 | COc1nc(NS(=O)(=O)c2c[nH]c3c(Br)c(Cl)ccc23)ncc1OCCF [Example 141, 7-bromo-6-chloro-N-[5-(2-fluoroethoxy)-4-methoxy-pyrimidin-2-yl]-1H-indole-3-sulfonamide] | 7.85
16 | COc1nc(NS(=O)(=O)c2c[nH]c3c(Br)c(Cl)ccc23)ncc1CC(F)F [Example 142, 7-bromo-6-chloro-N-[5-(2,2-difluoroethyl)-4-methoxy-pyrimidin-2-yl]-1H-indole-3-sulfonamide] | 7.54
17 | COc1nc(NS(=O)(=O)c2c[nH]c3cc(Br)ccc23)ncc1OCC(F)F [Example 143, 6-bromo-N-[5-(2,2-difluoroethoxy)-4-methoxy-pyrimidin-2-yl]-1H-indole-3-sulfonamide] | 6.96
18 | COc1nc(NS(=O)(=O)c2csc3nc(Br)ccc23)nc(OC)c1C [Example 144, 6-bromo-N-(4,6-dimethoxy-5-methyl-pyrimidin-2-yl)thieno[2,3-b]pyridine-3-sulfonamide] | 7.30
19 | COc1nc(NS(=O)(=O)c2csc3nc(Br)ccc23)ncc1OCC(F)F [Example 145, 6-bromo-N-[5-(2,2-difluoroethoxy)-4-methoxy-pyrimidin-2-yl]thieno[2,3-b]pyridine-3-sulfonamide] | 6.82

Row | Compound | pIC50
20 | COc1nc(NS(=O)(=O)c2csc3nc(Br)ccc23)ncc1OCCF [Example 146, 6-bromo-N-[5-(2-fluoroethoxy)-4-methoxy-pyrimidin-2-yl]thieno[2,3-b]pyridine-3-sulfonamide] | 7.05
21 | COc1nc(NS(=O)(=O)c2csc3nc(Br)ccc23)ncc1OC(F)(F)CF [Example 147, 6-bromo-N-[4-methoxy-5-(1,1,2-trifluoroethoxy)pyrimidin-2-yl]thieno[2,3-b]pyridine-3-sulfonamide] | 6.98
22 | COc1nc(NS(=O)(=O)c2csc3nc(Br)ccc23)ncc1CC(F)F [Example 148, 6-bromo-N-[5-(2,2-difluoroethyl)-4-methoxy-pyrimidin-2-yl]thieno[2,3-b]pyridine-3-sulfonamide] | 7.31
23 | COc1nc(NS(=O)(=O)c2csc3nc(Br)ccc23)ncc1CCC#N [Example 149, 6-bromo-N-[5-(2-cyanoethyl)-4-methoxy-pyrimidin-2-yl]thieno[2,3-b]pyridine-3-sulfonamide] | 6.83
24 | COc1nc(NS(=O)(=O)c2csc3nc(Br)ccc23)nc(OC)c1CC(F)F [Example 150, 6-bromo-N-[5-(2,2-difluoroethyl)-4,6-dimethoxy-pyrimidin-2-yl]thieno[2,3-b]pyridine-3-sulfonamide] | 7.41
25 | COc1nc(NS(=O)(=O)c2csc3nc(Br)ccc23)nc(OC)c1CCC#N [Example 151, 6-bromo-N-[5-(2-cyanoethyl)-4,6-dimethoxy-pyrimidin-2-yl]thieno[2,3-b]pyridine-3-sulfonamide] | 7.54
26 | CCc1ccc2c(S(=O)(=O)Nc3ncc(CC(F)F)c(OC)n3)c[nH]c2c1 [Example 152, N-[5-(2,2-difluoroethyl)-4-methoxy-pyrimidin-2-yl]-6-ethyl-1H-indole-3-sulfonamide] | 6.98
27 | CCCc1ccc2c(S(=O)(=O)Nc3ncc(CC(F)F)c(OC)n3)c[nH]c2c1 [Example 153, N-[5-(2,2-difluoroethyl)-4-methoxypyrimidin-2-yl]-6-propyl-1H-indole-3-sulfonamide] | 6.45
28 | COc1nc(NS(=O)(=O)c2csc3cc(Cl)ccc23)ncc1CC(F)F [Example 154, 6-chloro-N-[5-(2,2-difluoroethyl)-4-methoxy-pyrimidin-2-yl]benzothiophene-3-sulfonamide] | 7.35
29 | COc1nc(NS(=O)(=O)c2csc3cc(Cl)ccc23)ncc1CCC(F)F [Example 155, 6-chloro-N-[5-(3,3-difluoropropyl)-4-methoxy-pyrimidin-2-yl]benzothiophene-3-sulfonamide] | 6.94
30 | COc1nc(NS(=O)(=O)c2csc3cc(Cl)ccc23)ncc1CCC#N [Example 156, 6-chloro-N-[5-(2-cyanoethyl)-4-methoxy-pyrimidin-2-yl]benzothiophene-3-sulfonamide] | 7.04
31 | COc1nc(NS(=O)(=O)c2csc3cc(Br)ccc23)ncc1OCC(F)F [Example 157, 6-bromo-N-[5-(2,2-difluoroethoxy)-4-methoxy-pyrimidin-2-yl]benzothiophene-3-sulfonamide] | 6.75
32 | COc1nc(NS(=O)(=O)c2csc3cc(Br)ccc23)ncc1OCCF [Example 158, 6-bromo-N-[5-(2-fluoroethoxy)-4-methoxy-pyrimidin-2-yl]benzothiophene-3-sulfonamide] | 7.33
33 | COc1nc(NS(=O)(=O)c2csc3cc(C)ccc23)ncc1OCCF [Example 159, N-[5-(2-fluoroethoxy)-4-methoxy-pyrimidin-2-yl]-6-methyl-benzothiophene-3-sulfonamide] | 6.66
34 | COc1nc(NS(=O)(=O)c2c[nH]c3nc(Br)ccc23)nc(OC)c1C [Example 160, 6-bromo-N-(4,6-dimethoxy-5-methyl-pyrimidin-2-yl)-1H-pyrrolo[2,3-b]pyridine-3-sulfonamide] | 7.96
35 | COc1nc(NS(=O)(=O)c2c[nH]c3nc(Br)ccc23)ncc1OCC(F)F [Example 161, 6-bromo-N-[5-(2,2-difluoroethoxy)-4-methoxy-pyrimidin-2-yl]-1H-pyrrolo[2,3-b]pyridine-3-sulfonamide] | 7.14
36 | COc1nc(NS(=O)(=O)c2csc3c(F)c(Cl)ccc23)ncc1CC(F)F [Example 162, 6-chloro-N-[5-(2,2-difluoroethyl)-4-methoxy-pyrimidin-2-yl]-7-fluoro-benzothiophene-3-sulfonamide] | 6.61
37 | COc1nc(NS(=O)(=O)c2csc3c(F)c(Cl)ccc23)ncc1CCC#N [Example 163, 6-chloro-N-[5-(2-cyanoethyl)-4-methoxy-pyrimidin-2-yl]-7-fluoro-benzothiophene-3-sulfonamide] | 6.67
38 | COc1nc(NS(=O)(=O)c2c[nH]c3c(F)c(F)ccc23)ncc1CC(F)F [Example 164, N-[5-(2,2-difluoroethyl)-4-methoxy-pyrimidin-2-yl]-6,7-difluoro-1H-indole-3-sulfonamide] | 6.90
